Test results: patent US20170275270A1, “BENZYL SUBSTITUTED INDAZOLES” (Bayer Pharma Aktiengesellschaft, priority 2014, published 2017)
“And” between values parts separate entries of the source, which are not always exact repeats. Equal values may be shown once. Where a name gives a salt, the structure may show the parent alone. Read-outs that look alike come from different tables or passages of the source.

Legend:
[1] = molecular target: T1, catalytic domain of human Bub1 (amino acids 704-1085) (Homo sapiens, UniProt O43683); test: Bub1 kinase assay (TR-FRET); type: biochemical
T1 construct: catalytic domain of human Bub1 (amino acids 704-1085); His6 (N); made in house; host or cells: Hi5 insect cells
T1 sequence (O43683 704-1085): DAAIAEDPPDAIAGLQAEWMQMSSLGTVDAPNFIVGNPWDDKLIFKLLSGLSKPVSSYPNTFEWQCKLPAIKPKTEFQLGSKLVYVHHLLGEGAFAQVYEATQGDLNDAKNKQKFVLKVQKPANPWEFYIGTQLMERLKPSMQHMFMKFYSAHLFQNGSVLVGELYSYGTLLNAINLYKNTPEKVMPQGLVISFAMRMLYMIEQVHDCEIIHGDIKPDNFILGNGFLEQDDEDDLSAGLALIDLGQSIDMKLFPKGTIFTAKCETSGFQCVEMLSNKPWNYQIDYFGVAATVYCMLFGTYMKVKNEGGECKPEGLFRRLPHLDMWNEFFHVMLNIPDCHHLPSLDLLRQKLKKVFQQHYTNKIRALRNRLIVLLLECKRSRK
Method in brief: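 Compounds from 2 mM DMSO stocks, serially diluted 1:3.4, incubated with enzyme at 22° C for 60 min. Stopped with EDTA, then 1 h with streptavidin-XL665, anti-phosphoserine antibody and Eu-labelled anti-mouse IgG. Phosphorylated biotin-peptide read by TR-FRET; IC50 by 4-parameter logistic fit.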

[2] = system: HeLa human cervical tumor cells; test: Proliferation assay (HeLa+Paclitaxel); conditions: read-out: Biological Assay 3: HeLa + Paclitaxel IC50, 3 nM paclitaxel, crystal violet;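 note: compounds at 0.001-10 µM added 4 h after paclitaxel, 92 h exposure, absorbance normalized to zero-point plate (0%) and untreated cells (100%), IC50 from 4-parameter fit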
Method: Proliferation Assay (HeLa+Paclitaxel):
Cultivated HeLa human cervical tumor cells (DSMZ ACC-57) were plated at a density of 3000 cells/well in a 96-well multititer plate in 200 μL of growth medium supplemented 10% fetal calf serum. After 24 hours, the cells of one plate (zero-point plate) were stained with crystal violet (see below). The medium of the other plates was supplemented with 3 nM of paclitaxel (Sigma-Aldrich) and the cells were incubated at 37° C. After 4 hours the test substances were added in various concentrations (0 μM, as well as in the range of 0.001-10 μM; the final concentration of the solvent dimethyl sulfoxide was adjusted to 0.1%) using a Hewlett-Packard HP D300 Digital Dispenser. The cells were incubated for another 92 hours at 37° C. in the presence of test substances. Cell proliferation was determined by staining the cells with crystal violet: the cells were fixed by adding 20 μL/measuring point of an 11% glutaric aldehyde solution for 15 minutes at room temperature. After three washing cycles of the fixed cells with water, the plates were dried at room temperature. The cells were stained by adding 100 μL/measuring point of a 0.1% crystal violet solution (pH 3.0). After three washing cycles of the stained cells with water, the plates were dried at room temperature. The dye was dissolved by adding 100 μL/measuring point of a 10% acetic acid solution. […] The change of cell number, in percent, was calculated by normalization of the measured values to the absorbtion values of the zero-point plate (=0%) and the absorbtion of the untreated (0 μm) cells (=100%). The IC50 values were determined by means of a 4 parameter fit.

[3] = system: HeLa; test: Proliferation assay (HeLa cell line);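 note: crystal violet staining of cell number, scaled between a plate stained before dosing (0%) and cells left untreated (100%), compounds tested at 0.001-10 µM, IC50 via 4-parameter fit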
[4] = molecular target: Bub1 (Homo sapiens, UniProt O43683); test: Formation-Assay: phosphorylation status of histone 2A by inhibition of kinase activity of Bub1; type: cell-based; conditions: Biological Assay 4.1: H2A Formation IC50, co-treatment with Nocodazole 1 μg/ml, 16 h
Chain of Bub1 (O43683 whole entry): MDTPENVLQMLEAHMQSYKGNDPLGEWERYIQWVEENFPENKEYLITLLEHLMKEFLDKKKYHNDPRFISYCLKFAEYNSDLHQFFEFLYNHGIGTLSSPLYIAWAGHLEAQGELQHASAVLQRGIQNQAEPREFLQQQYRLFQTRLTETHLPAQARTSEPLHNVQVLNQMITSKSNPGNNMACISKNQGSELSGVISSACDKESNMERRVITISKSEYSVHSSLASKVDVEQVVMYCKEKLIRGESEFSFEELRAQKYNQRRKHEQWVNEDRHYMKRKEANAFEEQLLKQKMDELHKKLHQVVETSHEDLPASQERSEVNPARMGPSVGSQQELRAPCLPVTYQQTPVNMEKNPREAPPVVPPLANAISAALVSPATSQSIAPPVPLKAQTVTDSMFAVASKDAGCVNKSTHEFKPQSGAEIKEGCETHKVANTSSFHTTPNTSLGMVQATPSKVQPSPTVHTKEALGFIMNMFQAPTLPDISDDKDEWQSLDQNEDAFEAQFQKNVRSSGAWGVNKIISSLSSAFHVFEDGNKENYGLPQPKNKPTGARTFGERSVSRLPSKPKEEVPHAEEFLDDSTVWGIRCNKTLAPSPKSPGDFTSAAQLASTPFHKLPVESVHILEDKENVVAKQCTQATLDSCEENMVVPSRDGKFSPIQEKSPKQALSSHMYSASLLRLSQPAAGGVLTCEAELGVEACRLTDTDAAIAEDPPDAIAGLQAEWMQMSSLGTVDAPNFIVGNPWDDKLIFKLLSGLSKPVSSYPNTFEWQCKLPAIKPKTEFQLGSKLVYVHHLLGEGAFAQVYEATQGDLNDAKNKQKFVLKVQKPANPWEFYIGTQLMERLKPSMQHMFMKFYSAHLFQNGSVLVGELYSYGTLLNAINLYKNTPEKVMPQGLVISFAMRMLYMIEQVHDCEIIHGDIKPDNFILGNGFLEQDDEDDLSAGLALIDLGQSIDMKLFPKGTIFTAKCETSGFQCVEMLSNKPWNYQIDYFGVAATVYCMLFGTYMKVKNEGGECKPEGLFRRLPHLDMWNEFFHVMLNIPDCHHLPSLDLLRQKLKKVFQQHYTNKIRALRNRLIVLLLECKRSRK
Method: Biological Assay 4.1: Formation-Assay
Cell-Based Mechanistic Assay: Changes of Phosphorylation Status of Histone 2A by Inhibition of Kinase Activity of Bub1
This assay determines the suppression of histone 2A phosphorylation by a Bub1 kinase inhibitor during co-treatment with Nocodazole. 25000 cells (cells were ordered from ATCC) were seeded in 96 well plate for 5 h at 37° C. Cells were treated with Nocodazole (1 μg/ml) and varying concentrations (between 3 nM and 10 μM) of test compounds for 16 h. Cells were fixed (20 min, Fixing solution R&D), washed three times with PBS and blocked with Odyssey blocking buffer before incubating with the primary antibody against phosphorylated H2A (5 μg/ml ABIN482721) overnight at 2-8° C. After washing, secondary IRDye-labeled antibody mix with cell stains was added for 1 h and washed again with PBS. Plates were scanned with LiCor Odyssey Infrared Imager CLx at 800 nm for P-H2A and at 700 nm for cell stains Draq5/Sapphire. The quotient of 800 nm and 700 nm for Nocodazole only treated cells was set as 100% and the quotient of 800 nm and 700 nm of untreated cells was set as 0%.
Histone H2A is an immediate intracellular substrate of Bub1 kinase. Determination of the phosphorylation status of Histone H2A provides a direct measure of the intracellular activity of Bub1 kinase.

[5] = Biological Assay 1: Bub1 kinase assay median IC50, 10 μM ATP
[6] = Homo sapiens, 96 h, read-out: Biological Assay 2: Proliferation assay (HeLa cell line) median IC50
[7] = 10 μM ATP, read-out: Biological Assay 1: Bub1 kinase assay median IC50

OCCOc1cc(F)c(Cn2nc(-c3ncc(C4CCN(CC(F)(F)F)CC4)c(Nc4ccncc4Cl)n3)c3ccccc32)c(F)c1 [Example 2-6-14, 2-{4-[(3-{4-[(3-chloropyridin-4-yl)amino]-5-[1-(2,2,2-trifluoroethyl)piperidin-4-yl]pyrimidin-2-yl}-1H-indazol-1-yl)methyl]-3,5-difluorophenoxy} ethanol]
IC50 [1, 5]: 36 nM
IC50 [2]: 340 nM
IC50 [3, 6]: 2400 nM
IC50 [4]: 7.1 nM

OCCOc1cc(F)c(Cn2nc(-c3ncc(C4CCN(CCC(F)(F)F)CC4)c(Nc4ccncc4Cl)n3)c3ccccc32)c(F)c1 [Example 2-6-15, 2-{4-[(3-{4-[(3-chloropyridin-4-yl)amino]-5-[1-(3,3,3-trifluoropropyl)piperidin-4-yl]pyrimidin-2-yl}-1H-indazol-1-yl)methyl]-3,5-difluorophenoxy} ethanol]
IC50 [1, 5]: 31 nM
IC50 [2]: 180 nM
IC50 [3, 6]: 2200 nM
IC50 [4]: 19 nM

Cc1nccc(Nc2nc(-c3nn(Cc4c(F)cc(OCCO)cc4F)c4ccccc34)ncc2C2CCN(CC(F)(F)F)CC2)n1 [Example 2-6-16, 2-{3,5-difluoro-4-[(3-{4-[(2-methylpyrimidin-4-yl)amino]-5-[1-(2,2,2-trifluoroethyl)piperidin-4-yl]pyrimidin-2-yl}-1H-indazol-1-yl)methyl]phenoxy}ethanol]
IC50 [1, 5]: 550 nM
IC50 [2]: 60 nM
IC50 [3, 6]: > 10000 nM
IC50 [4]: 0.56 nM

Cc1nccc(Nc2nc(-c3nn(Cc4c(F)cc(OCCO)cc4F)c4ccccc34)nc3c2CCC3)n1 [Example 2-6-18, 2-{3,5-difluoro-4-[(3-{4-[(2-methylpyrimidin-4-yl)amino]-6,7-dihydro-5H-cyclopenta[d]pyrimidin-2-yl}-1H-indazol-1-yl)methyl]phenoxy}ethanol]
IC50 [1, 5]: 30 nM
IC50 [2]: 90 nM
IC50 [3, 6]: > 10000 nM
IC50 [4]: 0.79 nM

OCCOc1cc(F)c(Cn2nc(-c3nc4c(c(Nc5ccncn5)n3)CCC4)c3ccccc32)c(F)c1 [Example 2-6-19, 2-[3,5-difluoro-4-({3-[4-(pyrimidin-4-ylamino)-6,7-dihydro-5H-cyclopenta[d]pyrimidin-2-yl]-1H-indazol-1-yl}methyl)phenoxy]ethanol]
IC50 [1, 5]: 8.9 nM
IC50 [2]: 140 nM
IC50 [3, 6]: > 10000 nM
IC50 [4]: 2.6 nM

Cc1cc(Nc2nc(-c3nn(Cc4c(F)cc(OCCO)cc4F)c4ccccc34)nc3c2CCC3)c(C)cn1 [Example 2-6-20, 2-{4-[(3-{4-[(2,5-dimethylpyridin-4-yl)amino]-6,7-dihydro-5H-cyclopenta[d]pyrimidin-2-yl}-1H-indazol-1-yl)methyl]-3,5-difluorophenoxy} ethanol]
IC50 [1, 7]: 66 nM
IC50 [2]: 140 nM
IC50 [3, 6]: 3400 nM
IC50 [4]: 1.8 nM

Cc1cc(Nc2nc(-c3nn(Cc4c(F)cc(OCCO)cc4F)c4ccccc34)nc3c2CCC3)c(F)cn1 [Example 2-6-21, 2-{3,5-difluoro-4-[(3-{4-[(5-fluoro-2-methylpyridin-4-yl)amino]-6,7-dihydro-5H-cyclopenta[d]pyrimidin-2-yl}-1H-indazol-1-yl)methyl]phenoxy}ethanol]
IC50 [1, 5]: 11 nM
IC50 [2]: 170 nM
IC50 [3, 6]: 3400 nM
IC50 [4]: 84 nM

Cc1nccc(Nc2nc(-c3nn(Cc4c(F)cc(OCCO)cc4F)c4ccccc34)nc3c2CC(C)(C)C3)n1 [Example 2-6-22, 2-{4-[(3-{6,6-dimethyl-4-[(2-methylpyrimidin-4-yl)amino]-6,7-dihydro-5H-cyclopenta[d]pyrimidin-2-yl}-1H-indazol-1-yl)methyl]-3,5-difluorophenoxy} ethanol]
IC50 [1, 5]: 81 nM
IC50 [2]: 99 nM
IC50 [3, 6]: 9200 nM
IC50 [4]: 180 nM

Cc1nccc(Nc2nc(-c3nn(Cc4c(F)cc(OCCO)cc4F)c4ccccc34)ncc2C2CCN(CC3CC3)CC2)n1 [Example 2-6-23, 2-{4-[(3-{5-[1-(cyclopropyl-methyl)piperidin-4-yl]-4-[(2-methylpyrimidin-4-yl)amino]pyrimidin-2-yl}-1H-indazol-1-yl)methyl]-3,5-difluorophenoxy} ethanol]
IC50 [1, 5]: 82 nM
IC50 [2]: 64 nM
IC50 [3, 6]: 3000 nM
IC50 [4]: 12 nM

Cc1nccc(Nc2nc(-c3nn(Cc4c(F)cc(OCCO)cc4F)c4ccccc34)nc3c2CCC(C)(C)C3)n1 [Example 2-6-24, 2-{4-[(3-{7,7-dimethyl-4-[(2-methylpyrimidin-4-yl)amino]-5,6,7,8-tetrahydroquin-azolin-2-yl}-1H-indazol-1-yl)methyl]-3,5-difluorophenoxy} ethanol]
IC50 [1, 5]: 120 nM
IC50 [2]: 150 nM
IC50 [3, 6]: > 10000 nM
IC50 [4]: 14 nM

OCCOc1cc(F)c(Cn2nc(-c3nc(CN4CCOCC4)cc(Nc4ccnnc4)n3)c3ccccc32)c(F)c1 [Example 2-6-37, 2-[3,5-difluoro-4-({3-[4-(morpholin-4-ylmethyl)-6-(pyridazin-4-ylamino)pyrimidin-2-yl]-1H-indazol-1-yl}methyl)phenoxy]ethanol]
IC50 [1, 7]: 40 nM
IC50 [2]: 2300 nM
IC50 [3, 6]: 9500 nM
IC50 [4]: 260 nM

OCCOc1cc(F)c(Cn2nc(-c3nc(CN4CCOCC4)cc(Nc4ccncc4)n3)c3ccccc32)c(F)c1 [Example 2-6-38, 2-[3,5-difluoro-4-({3-[4-(morpholin-4-ylmethyl)-6-(pyridin-4-ylamino)pyrimidin-2-yl]-1H-indazol-1-yl}methyl)phenoxy]ethanol]
IC50 [1, 7]: 10 nM
IC50 [2]: 930 nM
IC50 [3, 6]: > 10000 nM
IC50 [4]: 2300 nM

CCOc1cc(F)c(Cn2nc(-c3ncc(CC[S@](C)(=N)=O)c(Nc4ccncc4)n3)c3ccccc32)c(F)c1 [Example 2-7-1, 2-[1-(4-ethoxy-2,6-difluorobenzyl)-1H-indazol-3-yl]-5-[2-(S-methylsulfonimidoyl)ethyl]-N-(pyridin-4-yl)pyrimidin-4-amine]
IC50 [1, 5]: 6.3 nM
IC50 [2]: 450 nM
IC50 [3, 6]: 3500 nM
IC50 [4]: 570 nM

CCOc1cc(F)c(Cn2nc(-c3ncc(CCN)c(Nc4ccncc4)n3)c3ccccc32)c(F)c1 [Example 2-9-2, 5-(2-aminoethyl)-2-[1-(4-ethoxy-2,6-difluorobenzyl)-1H-indazol-3-yl]-N-(pyridin-4-yl)pyrimidin-4-amine]
IC50 [1, 7]: 8.8 nM
IC50 [2]: 360 nM
IC50 [3, 6]: 1100 nM
IC50 [4]: 1600 nM

CCOc1cc(F)c(Cn2nc(-c3ncc(C4CCNCC4)c(Nc4ccncc4)n3)c3ccccc32)c(F)c1 [Example 2-9-3, 2-[1-(4-ethoxy-2,6-difluorobenzyl)-1H-indazol-3-yl]-5-(piperidin-4-yl)-N-(pyridin-4-yl)pyrimidin-4-amine, salt with hydrochloric acid]
IC50 [1, 5]: 5.8 nM
IC50 [2]: 240 nM
IC50 ([3]; read-out: Biological Assay 2: Proliferation assay (HeLa cell line) median IC50, 4 days, crystal violet): 1100 nM
IC50 [4]: > 3000 nM and 4900 nM

CCOc1cc(F)c(Cn2nc(-c3ncc(CC4CNC4)c(Nc4ccncc4)n3)c3ccccc32)c(F)c1 [Example 2-9-4, 5-(azetidin-3-ylmethyl)-2-[1-(4-ethoxy-2,6-difluorobenzyl)-1H-indazol-3-yl]-N-(pyridin-4-yl)pyrimidin-4-amine, salt with hydrochloric acid]
IC50 [1, 7]: 7.8 nM
IC50 [2]: 420 nM
IC50 [3, 6]: 1900 nM
IC50 [4]: 440 nM

CCOc1cc(F)c(Cn2nc(-c3ncc(CN)c(Nc4ccncc4)n3)c3ccccc32)c(F)c1 [Example 2-9-5, 5-(aminomethyl)-2-[1-(4-ethoxy-2,6-difluorobenzyl)-1H-indazol-3-yl]-N-(pyridin-4-yl)pyrimidin-4-amine, salt with hydrochloric acid]
IC50 [1, 7]: 14 nM
IC50 [2]: 340 nM
IC50 [3, 6]: 1800 nM
IC50 [4]: 1.8 nM

CCOc1cc(F)c(Cn2nc(-c3ncc(CN)c(Nc4ccnc(C(F)F)c4)n3)c3ccccc32)c(F)c1 [Example 2-9-6, 5-(aminomethyl)-N-[2-(difluoro-methyl)pyridin-4-yl]-2-[1-(4-ethoxy-2,6-difluorobenzyl)-1H-indazol-3-yl]pyrimidin-4-amine, salt with hydrochloric acid]
IC50 [1, 7]: 90 nM
IC50 [2]: 260 nM
IC50 [3, 6]: 3700 nM
IC50 [4]: 2.9 nM

CCOc1cc(F)c(Cn2nc(-c3ncc(CC4CNC4)c(Nc4ccnc(NC(C)=O)c4)n3)c3ccccc32)c(F)c1 [Example 2-9-7, N-[4-({5-(azetidin-3-ylmethyl)-2-[1-(4-ethoxy-2,6-difluorobenzyl)-1H-indazol-3-yl]pyrimidin-4-yl}amino)pyridin-2-yl]acetamide, salt with hydrochloric acid]
IC50 [1, 5]: 7.4 nM
IC50 [2]: 170 nM
IC50 [3, 6]: 10000 nM
IC50 [4]: 6.7 nM
